Test results: PMC3989888 (Virology, 2014)
Read-outs that look alike come from different tables or passages of the source.

What was measured:
CD4 T cells (PBMC) [1] = assay: Ex vivo class II tetramer staining and phenotyping of PBMC from adults; type: cell-based, human (DRB1*0101 healthy adults); details: for #Tet+/6.0×10^5 CD4+ T cells: ex vivo fresh PBMC, tetramer of the peptide; for % α4β7(+) CCR9(+) / % α4β7(+) CCR9(−) / % α4β7(−) CCR9(+) / % α4β7(−) CCR9(−): of antigen experienced tetramer+ CD4 T cells; for % Antigen experienced T cells: tetramer+ CD4 T cells, CD62L−CD45RA+/− and CD62L+CD45RA−
CD4 T cells (PBMC) [2] = type: cell-based, human (HLA-DR1 children)

Question: With RVEYHFLSPYVSRKESP [TRF] as the sequence, how does the “#Tet+/6.0×10^5 CD4+ T cells” value (CD4 T cells (PBMC) [1]; HA-02) read?
Answer: The value was 8 /6.0×10^5 CD4^+ T cells.

Question: And the “% α4β7(+) CCR9(+)” value (CD4 T cells (PBMC) [1]; HA-02)?
Answer: The value was 33.3%.

Question: And the “% α4β7(+) CCR9(−)” value (CD4 T cells (PBMC) [1]; HA-02)?
Answer: The value was 33.3%.

Question: What about the “% α4β7(−) CCR9(+)” value (CD4 T cells (PBMC) [1]; HA-02) of the same sequence?
Answer: Its value is 0%.

Question: What about the “% α4β7(−) CCR9(−)” value (CD4 T cells (PBMC) [1]; HA-02) of the same sequence?
Answer: The value was 33.3%.

Question: What about the “% Antigen experienced T cells” value (CD4 T cells (PBMC) [1]; HA-02) of the same sequence?
Answer: The value was 54.5%.

Question: What about the “#Tet+/6.0×10^5 CD4+ T cells” value (CD4 T cells (PBMC) [1]; HA-15) of the same sequence?
Answer: The value was 4 /6.0×10^5 CD4^+ T cells.

Question: What about the “% Antigen experienced T cells” value (CD4 T cells (PBMC) [1]; HA-15) of the same sequence?
Answer: Its value is 0%.

Question: What about the “#Tet+/6.0×10^5 CD4+ T cells” value (CD4 T cells (PBMC) [1]; HA-19) of the same sequence?
Answer: The value was 10 /6.0×10^5 CD4^+ T cells.

Question: And the “% α4β7(+) CCR9(+)” value (CD4 T cells (PBMC) [1]; HA-19)?
Answer: The value was 33.3%.

Question: What about the “% α4β7(+) CCR9(−)” value (CD4 T cells (PBMC) [1]; HA-19) of the same sequence?
Answer: Its value is 8.33%.

Question: And the “% α4β7(−) CCR9(+)” value (CD4 T cells (PBMC) [1]; HA-19)?
Answer: Its value is 25%.

Question: And the “% α4β7(−) CCR9(−)” value (CD4 T cells (PBMC) [1]; HA-19)?
Answer: The value was 33.3%.

Question: What about the “% Antigen experienced T cells” value (CD4 T cells (PBMC) [1]; HA-19) of the same sequence?
Answer: Its value is 85.7%.

Question: What about the “#Tet+/6.0×10^5 CD4+ T cells” value (CD4 T cells (PBMC) [1]; HA-23) of the same sequence?
Answer: The value was 8 /6.0×10^5 CD4^+ T cells.

Question: And the “% α4β7(+) CCR9(+)” value (CD4 T cells (PBMC) [1]; HA-23)?
Answer: The value was 25%.

Question: What about the “% α4β7(+) CCR9(−)” value (CD4 T cells (PBMC) [1]; HA-23) of the same sequence?
Answer: The value was 25%.

Question: What about the “% α4β7(−) CCR9(+)” value (CD4 T cells (PBMC) [1]; HA-23) of the same sequence?
Answer: The value was 0%.

Question: And the “% α4β7(−) CCR9(−)” value (CD4 T cells (PBMC) [1]; HA-23)?
Answer: Its value is 50%.

Question: What about the “% Antigen experienced T cells” value (CD4 T cells (PBMC) [1]; HA-23) of the same sequence?
Answer: The value was 57.1%.

Question: And the “#Tet+/6.0×10^5 CD4+ T cells” value (CD4 T cells (PBMC) [1]; HA-29)?
Answer: Its value is 14 /6.0×10^5 CD4^+ T cells.

Question: What about the “% α4β7(+) CCR9(+)” value (CD4 T cells (PBMC) [1]; HA-29) of the same sequence?
Answer: The value was 50%.

Question: And the “% α4β7(+) CCR9(−)” value (CD4 T cells (PBMC) [1]; HA-29)?
Answer: Its value is 0%.

Question: And the “% α4β7(−) CCR9(+)” value (CD4 T cells (PBMC) [1]; HA-29)?
Answer: The value was 0%.

Question: What about the “% α4β7(−) CCR9(−)” value (CD4 T cells (PBMC) [1]; HA-29) of the same sequence?
Answer: The value was 50%.

Question: What about the “% Antigen experienced T cells” value (CD4 T cells (PBMC) [1]; HA-29) of the same sequence?
Answer: The value was 50%.

Question: What about the “#Tet+/6.0×10^5 CD4+ T cells” value (CD4 T cells (PBMC) [1]; HA-41) of the same sequence?
Answer: Its value is 3 /6.0×10^5 CD4^+ T cells.

Question: What about the “% α4β7(+) CCR9(+)” value (CD4 T cells (PBMC) [1]; HA-41) of the same sequence?
Answer: The value was 0%.

Question: And the “% α4β7(+) CCR9(−)” value (CD4 T cells (PBMC) [1]; HA-41)?
Answer: The value was 33.3%.

Question: And the “% α4β7(−) CCR9(+)” value (CD4 T cells (PBMC) [1]; HA-41)?
Answer: The value was 0%.

Question: And the “% α4β7(−) CCR9(−)” value (CD4 T cells (PBMC) [1]; HA-41)?
Answer: The value was 66.7%.

Question: What about the “% Antigen experienced T cells” value (CD4 T cells (PBMC) [1]; HA-41) of the same sequence?
Answer: The value was 100%.

Question: What about the “#Tet+/6.0×10^5 CD4+ T cells” value (CD4 T cells (PBMC) [1]; HA-51) of the same sequence?
Answer: Its value is 98 /6.0×10^5 CD4^+ T cells.

Question: What about the “% α4β7(+) CCR9(+)” value (CD4 T cells (PBMC) [1]; HA-51) of the same sequence?
Answer: Its value is 20.7%.

Question: What about the “% α4β7(+) CCR9(−)” value (CD4 T cells (PBMC) [1]; HA-51) of the same sequence?
Answer: The value was 44.8%.

Question: And the “% α4β7(−) CCR9(+)” value (CD4 T cells (PBMC) [1]; HA-51)?
Answer: The value was 6.9%.

Question: What about the “% α4β7(−) CCR9(−)” value (CD4 T cells (PBMC) [1]; HA-51) of the same sequence?
Answer: The value was 27.6%.

Question: And the “% Antigen experienced T cells” value (CD4 T cells (PBMC) [1]; HA-51)?
Answer: Its value is 36.7%.

Question: And the “#Tet+/6.0×10^5 CD4+ T cells” value (CD4 T cells (PBMC) [1]; HA-52)?
Answer: The value was 72 /6.0×10^5 CD4^+ T cells.

Question: And the “% α4β7(+) CCR9(+)” value (CD4 T cells (PBMC) [1]; HA-52)?
Answer: Its value is 0%.

Question: And the “% α4β7(+) CCR9(−)” value (CD4 T cells (PBMC) [1]; HA-52)?
Answer: Its value is 66.7%.

Question: What about the “% α4β7(−) CCR9(+)” value (CD4 T cells (PBMC) [1]; HA-52) of the same sequence?
Answer: Its value is 0%.

Question: What about the “% α4β7(−) CCR9(−)” value (CD4 T cells (PBMC) [1]; HA-52) of the same sequence?
Answer: Its value is 33.3%.

Question: And the “% Antigen experienced T cells” value (CD4 T cells (PBMC) [1]; HA-52)?
Answer: Its value is 27.3%.

Question: What about the “Tetramer+ cells with phenotype of antigen-experienced cells” value (CD4 T cells (PBMC) [2]; both groups of children (vaccinated and placebo), data not shown) of the same sequence?
Answer: Its value is 0–30%.

Question: What about the “Frequency of tetramer stained antigen experienced CD4 T cells” value (CD4 T cells (PBMC) [2]; placebo recipient children (n = 3)) of the same sequence?
Answer: Its value is <0.0001–0.003%.

Question: What about the “Frequency of tetramer stained antigen experienced CD4 T cells” value (CD4 T cells (PBMC) [2]; vaccinated children (n = 3), two weeks after second dose of RIX4414) of the same sequence?
Answer: The value was <0.0001–0.01%.
